In patent US20260132151A1, “NOVEL N,N-DIMETHYLTRYPTAMINE (DMT) DERIVATIVES AND USES THEREOF” (priority 2022, published 2026):
pIC50: −log10 of the molar value. Entries after “also recorded” stand apart in the source; their conditions may differ. Like-named read-outs stand apart in the source and are kept apart here.

Experiments:
SERT [1] = target: T1, SERT (Homo sapiens, UniProt P31645); assay: Uptake inhibition assay ([3H]5-HT) in HEK293-SERT cells; type: cell-based; parameters: expressed in transfected cells; details: for pIC50: HEK293-SERT cells
Procedure: (§1) Human embryonic kidney (HEK) 293 cells stably expressing human SERT were maintained in humidified atmosphere (37° C., 5% CO2) in Dulbecco's Modified Eagle Medium (DMEM), supplemented with 10% heat-inactivated fetal calf serum (FCS), streptomycin (100 μg×100 mL^−1) and penicillin (100 U×100 mL^−1). Geneticin (50 μg×mL^−1) was used as selection antibiotic.
One day before the experiment, HEK293-SERT cells were seeded onto poly-D-lysine coated 96 well plates at a density of 30,000 cells per well in a final volume of 200 μL. For uptake experiments, the cell culture medium was replaced with 300 μL Krebs-HEPES buffer (KHB; 25 mM HEPES, 120 mM NaCl, 5 mM KCl, 1.2 mM CaCl2, 1.2 mM MgSO4, and 5 mM D-glucose, pH 7.3). Then, the buffer was replaced with various concentrations of test compounds for 5 minutes; subsequent to that, 0.1 μM [^3H]5-HT in KHB was added to yield a total volume of 50 μL in the well. For determination of non-specific uptake, paroxetine was used (3 μM).
Uptake was terminated after 60 s by washing the cells with 200 μL ice-cold KHB. Subsequently, the cells were lysed with 200 μL Ultima Gold™ XR liquid scintillation cocktail, and the amount of tritium in the cells was measured with a Wallac 1450 MicroBeta® TriLux liquid scintillation counter. Monoamine uptake data were fitted by nonlinear regression, Vmax and Km values were calculated from Michaelis Menten's least-squares fit with GraphPad Prism (Prism 9.0.2, GraphPad Software, San Diego, CA, USA).
We tested Example 1, Example 4, Example 13 in both uptake inhibition and release assays, and Example 15 in uptake inhibition assays. Drugs were tested either as the undecomposed prodrug or after treatment with 0.5% HCl at 37° C. for 24 hours in order to simulate digestion of the prodrug by gastric acid inside the body after peroral administration. DMT was tested dissolved only in DMSO.

[2] = type: physicochemical; details: for stability of the prodrug (in words): 1% HCl, pH 7.4 and pH 8.0 compared; for release of DMT / conversion to DMT (in words): all tested pHs: 1% HCl, pH 7.4, pH 8.0; for degradation of the prodrug: essentially instantaneous, with liberation of DMT
Procedure: Four compounds (i.e., methyl carbamate [compound 8, Example 8], boc carbamate [compound 11, […]], pinacol boronic ester [compound 1, Example 1] and TFA-amide [compound 3, Example 3]) were tested for their stability in 1% hydrochloric acid (HCl) as well as in phosphate buffers (0.1 M) at pH 7.4 and pH 8.0, respectively. These conditions were selected to assess the chemical stability of these compounds at a pH corresponding to different physiological conditions. Dilute hydrochloric acid (pH 1) was used to mimic the low pH of gastric acid within the stomach, while potassium phosphate buffers of pH 7.4 and pH 8.0 were used to mimic conditions in human blood and small intestine, respectively.
4 mg of each test compound was diluted in 4 mL of either a 1% HCl solution or the respective phosphate buffer (0.1 M), resulting in a solution of 1 mg/mL each. Regarding the acidic testing with hydrochloric acid, 2 mL of aqueous test compound solutions were then added to 2 mL of 2% (v/v) in distilled water, yielding a final HCl concentration of […] (pH 0.5). Test solutions were incubated at 37° C. with constant stirring for approximately 21 hours. The concentrations of the parent compound were analyzed at different timepoints using LC/MS. The concentrations of the parent prodrug and released drug were expressed relative to the starting concentration of the parent prodrug.

SERT [3] = target: T1, SERT; assay: Release (efflux) assay in HEK293-SERT cells loaded with [3H]5-HT; type: cell-based; parameters: expressed in transfected cells; details: Examples dissolved in HCl, DMT in DMSO, compared with pCA (full releaser)
Procedure: as §1
The day prior to the assay, stably expressing HEK293-SERT cells were seeded in a perfusion chamber of an IBIDI microfluidic chip (μ-Slide VI 0.5 Glass Bottom, ibidi GmbH). Chambers were previously coated with poly-D-lysine for 20 min at 37° C. and then cells were seeded at a density of approximately 1-10^6 cells×mL^−1.
For the release experiment, cells were loaded with radioactive substrate […] [^3H]5-HT for 20 min at 37° C. and then perfused with different solutions at constant flow rate (0.6 μL min^−1). […] The cells were flushed using sodium dodecyl sulfate (SDS) to retrieve the residual radioactivity (6 min). […]
Radioactivity was quantified with a beta-scintillation counter (PerkinElmer, Waltham, MA, USA). The released amount of tritiated substrate for each fraction was expressed as the amount of released tritium compared to the amount remaining in the cell at the end of the previous fraction. […]

SERT [4] = target: T1, SERT; parameters: host or cells: human platelets (endogenous SERT); details: read-out: uptake inhibition by DMT; human platelets expressing SERT; literature value; cited from earlier work
[5] = after treatment with 0.5% HCl at 37° C. for 24 hours, read-out: Uptake inhibition, IC50 values, SERT
[6] = undecomposed compound dissolved in DMSO, no HCl pre-treatment, read-out: Uptake inhibition, IC50 values, SERT

T1 sequence (P31645 whole entry): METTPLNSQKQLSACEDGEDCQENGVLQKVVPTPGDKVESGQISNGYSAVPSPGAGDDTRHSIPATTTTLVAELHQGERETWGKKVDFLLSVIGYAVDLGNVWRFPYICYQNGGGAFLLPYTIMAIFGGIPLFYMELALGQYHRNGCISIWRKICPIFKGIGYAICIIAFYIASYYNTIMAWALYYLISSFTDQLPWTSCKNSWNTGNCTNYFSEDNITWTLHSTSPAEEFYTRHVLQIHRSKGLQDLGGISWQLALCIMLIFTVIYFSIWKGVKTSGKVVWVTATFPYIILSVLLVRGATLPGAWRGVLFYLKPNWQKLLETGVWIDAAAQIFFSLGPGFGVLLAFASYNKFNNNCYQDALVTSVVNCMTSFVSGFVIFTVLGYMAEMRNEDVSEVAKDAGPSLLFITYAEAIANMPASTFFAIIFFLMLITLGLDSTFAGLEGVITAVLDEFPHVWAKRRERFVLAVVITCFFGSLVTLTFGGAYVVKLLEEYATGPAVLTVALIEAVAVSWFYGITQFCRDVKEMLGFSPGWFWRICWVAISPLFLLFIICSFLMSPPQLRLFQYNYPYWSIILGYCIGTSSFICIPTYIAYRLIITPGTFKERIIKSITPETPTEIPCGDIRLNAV

Structure (SMILES) | pIC50 (SERT [1]; [5]) | pIC50 (SERT [1]; [6]) | stability of the prodrug (in words) [2] | release of DMT / conversion to DMT (in words) ([2]; 37° C.) | further results
CN(C)CCc1cn(S(=O)(=O)C2CC2)c2ccccc12 [Example 13, 2-(1-(cyclopropylsulfonyl)-1H-indol-3-yl)-N,N-dimethylethan-1-amine] | 4.65 | 4.03 | – | – | interaction with the transporter without pre-treatment (in words) (SERT [1]; uptake inhibition, no HCl pre-treatment (DMSO)): interaction with the transporter was scarce
CN(C)CCc1c[nH]c2cccc(B3OC(C)(C)C(C)(C)O3)c12 [Example 1, N,N-dimethyl-2-(4-(4,4,5,5-tetramethyl-1,3,2-dioxaborolan-2-yl)-1H-indol-3-yl)ethan-1-amine] | 4.87 | 4.57 | maximum stability under acidic conditions | releasing DMT rapidly within minutes | –
CN(C)CCc1c[nH]c2ccccc12 [DMT, N,N-Dimethyltryptamine] | – | – | – | – | pIC50 (SERT [1]; Uptake inhibition, IC50 values, SERT, undecomposed compound dissolved in DMSO, no HCl pre-treatment): 4.91; transporter-mediated efflux (release) via SERT (SERT [3]): almost full efficacious release; pIC50 (SERT [4]): ~5.00
COC(=O)n1cc(CCN(C)C)c2ccccc21 [Example 8, methyl 3-(2-(dimethylamino)ethyl)-1H-indole-1-carboxylate] | – | – | – | – | release of DMT at pH 7.4 and pH 8.0 ([2]; phosphate buffers (0.1 M) pH 7.4 and pH 8.0, 37° C.): continuous release of DMT
CN(C)CCc1cn(C(=O)C(C)(C)C)c2ccccc12 [Example 4, 1-(3-(2-(dimethylamino)ethyl)-1H-indol-1-yl)-2,2-dimethylpropan-1-one] | 5.08 | ~5.68 | – | – | transporter-mediated efflux (release) via SERT (SERT [3]): induces even less efflux; also recorded: yields a lower efflux compared to both DMT and Example 1
CN(C)CCc1cn(C(=O)OC(C)(C)C)c2ccccc12 [Example 11, tert-butyl 3-(2-(dimethylamino)ethyl)-1H-indole-1-carboxylate] | – | – | significantly more stable under all tested conditions | Conversion to DMT proceeded efficiently throughout the entire experiment at all pHs | liberation of DMT / conversion under acidic conditions ([2]; 1% HCl solution (pH 1.0), 37° C., approximately 21 hours): remarkably fast release time of two hours
CN(C)CCc1cn(C(=O)C(F)(F)F)c2ccccc12 [Example 3, 1-(3-(2-(dimethylamino)ethyl)-1H-indol-1-yl)-2,2,2-trifluoroethan-1-one] | – | – | maximum stability under acidic conditions | releasing DMT rapidly within minutes | degradation of the prodrug ([2]; phosphate buffer (0.1 M) pH 7.4, 37° C.): 100%; degradation of the prodrug ([2]; phosphate buffer (0.1 M) pH 8.0, 37° C.): 100%
